Laboratory results published in patent US20070185115A1, “Novel ureido-and amido-pyrazolone derivatives” (Aston University, priority 2003, published 2007).
pIC50: −log10 of the molar value. Read-outs that look alike come from different tables or passages of the source.

How the values were obtained:
CCKB receptor = target: T1, CCKB receptor (Cavia porcellus, UniProt H0VZC5); test: 125I-CCK-8 receptor binding assay, CCKB (guinea pig cerebral cortex membranes)
T1 construct: Male guinea pig brain tissues were prepared according to the modified method described by Saita et al; from tissue; host or cells: guinea pig cerebral cortex membranes
T1 sequence (H0VZC5 1-426): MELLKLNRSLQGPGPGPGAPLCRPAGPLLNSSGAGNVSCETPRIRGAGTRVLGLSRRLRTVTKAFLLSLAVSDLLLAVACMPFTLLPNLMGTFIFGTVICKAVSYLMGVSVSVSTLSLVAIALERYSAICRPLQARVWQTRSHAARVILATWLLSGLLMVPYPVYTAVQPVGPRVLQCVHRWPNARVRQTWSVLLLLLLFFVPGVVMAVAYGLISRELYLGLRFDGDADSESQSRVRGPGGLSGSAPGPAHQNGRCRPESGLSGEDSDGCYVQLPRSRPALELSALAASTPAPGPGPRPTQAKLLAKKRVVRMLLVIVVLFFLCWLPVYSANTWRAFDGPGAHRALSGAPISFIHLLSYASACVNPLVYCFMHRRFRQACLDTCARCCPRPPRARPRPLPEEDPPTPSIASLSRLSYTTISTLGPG
Protocol: (§1) Pharmacological Methods—^[125]I-CCK-8 Receptor Binding Assay
(§2) CCKA and CCKB receptor binding assays were performed, by using guinea pig cerebral cortex (CCKB) or rat pancreas (CCKA). Male guinea pig brain tissues were prepared according to the modified method described by Saita et al, [(1994), Characterization of YM022: its CCKB/gastrin receptor binding profile and antagonism to CCK-8-induced Ca2+mobilization., Eur. J. PharmacoL,269, 249-254]. Pancreatic membranes were prepared in a similar way but by Charpentier et al, [(1988), Cyclic cholecystokinin analogues with high selectivity for central receptors., Proc Natl Acad Sci USA, 85, 1968-1972]. For the in vivo CCK binding assay tissues were homogenised in ice cold sucrose (0.32 M, 25 ml) for 15 strokes at 500 rpm and centrifuged at 13000 rpm for 10 mins. The supernatant was re-centrifuged at 13000 rpm for 20 mins. The resulting pellet was re-dispersed to the required volume of buffer at 500 rpm and stored in aliquots at […].
(§3) Binding was achieved using a.radioligand ^125I-Bolton-Hunter labeled CCK, NEN at 25 pM. The samples were incubated {with membranes (0.1 mg/ml)} in 20 mM Hepes, 1 mM EGTA, 5 mM MgCl2, 150 mm NaCl, 0.25 mg/ml bacitracin at pH 6.5 for 2 hrs at RT and then […] by centrifugation at 1100 rpm for 5 minutes. The membrane pellets were washed twice with water and the bound radioactivity was measured in a Packard Cobra Auto-gamma counter (B5005). All binding assays were carried out with L-365, 260 (Bock, M. G., et. al., Benzodiazepine gastrin and brain cholecystokinin receptor ligands. L-365,260, J. Med. Chem. 1989, 32, 14-24) as an internal non-specific standard. Controls (no compound) were also added. All samples were made in duplicate and repeated twice. All compounds were initially screened for percentage inhibition at 20 μm.

CCKA receptor = target: T2, CCKA receptor (Rattus norvegicus, UniProt P30551); test: 125I-CCK-8 receptor binding assay, CCKA (rat pancreas membranes); conditions: for Ratio A/B: ratio of CCKB and CCKA IC50 values
T2 construct: Pancreatic membranes were prepared in a similar way but by Charpentier et al; from tissue; host or cells: rat pancreas membranes
T2 sequence (P30551 1-444): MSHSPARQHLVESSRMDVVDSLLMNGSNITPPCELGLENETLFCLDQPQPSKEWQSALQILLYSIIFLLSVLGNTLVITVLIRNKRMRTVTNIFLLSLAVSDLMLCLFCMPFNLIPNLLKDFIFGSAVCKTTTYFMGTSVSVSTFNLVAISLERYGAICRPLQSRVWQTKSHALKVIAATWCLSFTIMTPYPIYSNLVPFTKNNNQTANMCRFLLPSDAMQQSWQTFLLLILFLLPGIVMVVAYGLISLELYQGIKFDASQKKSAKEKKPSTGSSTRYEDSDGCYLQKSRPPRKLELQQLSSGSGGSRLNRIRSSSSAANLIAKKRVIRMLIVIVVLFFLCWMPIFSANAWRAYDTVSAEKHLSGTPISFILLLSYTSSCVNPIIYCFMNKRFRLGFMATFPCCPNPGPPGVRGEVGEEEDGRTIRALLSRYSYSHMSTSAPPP
Protocol: as §1, §2, §3

[1] = Table 3, diphenyl pyrazolyl ureas, guinea pig cerebral cortex, 125I-Bolton-Hunter CCK 25 pM, read-out: IC50 CCKB
[2] = Table 1, phenyl pyrazolinone ureas, guinea pig cerebral cortex, 125I-Bolton-Hunter CCK 25 pM, read-out: IC50 CCKB
[3] = Table 2, phenylpyrazolinone amides, rat pancreas, 125I-Bolton-Hunter CCK 25 pM, read-out: IC50 CCKA
[4] = Table 2, phenylpyrazolinone amides, guinea pig cerebral cortex, 125I-Bolton-Hunter CCK 25 pM, read-out: IC50 CCKB
[5] = Table 3, diphenyl pyrazolyl ureas, rat pancreas, 125I-Bolton-Hunter CCK 25 pM, read-out: IC50 CCKA
[6] = Table 4, diphenyl pyrazolinone amides, rat pancreas, 125I-Bolton-Hunter CCK 25 pM, read-out: IC50 CCKA
[7] = Table 4, diphenyl pyrazolinone amides, guinea pig cerebral cortex, 125I-Bolton-Hunter CCK 25 pM, read-out: IC50 CCKB

Question: `Cc1c(NC(=O)Nc2ccccc2[N+](=O)[O-])c(=O)n(-c2ccccc2)n1-c1ccccc1` [Example 25, N-(5-Methyl-3-oxo-1,2-diphenyl-2,3-dihydro-1H-pyrazol-4yl)N′-2-nitrophenylurea] was tested. Which pIC50 (CCKB receptor; [1]) did it give?
Answer: Its pIC50 is 5.12.

Question: With `Cc1ccc(NC(=O)Nc2c(C)n(C)n(-c3ccccc3)c2=O)cc1` [Example 9] as the compound, how does the pIC50 (CCKB receptor; [2]) read?
Answer: Its pIC50 is < 4.70.

Question: With `Cc1cccc(NC(=O)Nc2c(C)n(C)n(-c3ccccc3)c2=O)c1` [Example 8] as the compound, how does the pIC50 (CCKB receptor; [2]) read?
Answer: Its pIC50 is 5.30.

Question: With `Cc1c(NC(=O)Nc2ccc(Cl)cc2)c(=O)n(-c2ccccc2)n1-c1ccccc1` [Example 32] as the compound, how does the pIC50 (CCKB receptor; [1]) read?
Answer: The pIC50 was < 4.70.

Question: `Cc1c(NC(=O)Nc2ccc(Cl)cc2)c(=O)n(-c2ccccc2)n1C` [Example 3, N-(4-chlorophenyl)-N′-(1,5-dihiethyl-3-oxo-2-phenyl-2,3-dihydro-1H-pyrazol-4-yl)urea] was tested. Which pIC50 (CCKB receptor; [2]) did it give?
Answer: Its pIC50 is 5.60.

Question: `Cc1c(NC(=O)Cc2c[nH]c3ccccc23)c(=O)n(-c2ccccc2)n1C` [Example 19] was tested. Which pIC50 (CCKA receptor; [3]) did it give?
Answer: Its pIC50 is 5.70.

Question: What about the pIC50 (CCKB receptor; [4]) of the same compound?
Answer: Its pIC50 is 5.05.

Question: How did the pIC50 (CCKB receptor; [1]) turn out when `Cc1ccc(NC(=O)Nc2c(C)n(-c3ccccc3)n(-c3ccccc3)c2=O)cc1` [Example 31] was run?
Answer: The pIC50 was < 4.70.

Question: How did the pIC50 (CCKB receptor; [2]) turn out when `Cc1c(NC(=O)Nc2ccc(Br)cc2)c(=O)n(-c2ccccc2)n1C` [Example 11] was run?
Answer: The pIC50 was 5.15.

Question: `COc1ccc(NC(=O)Nc2c(C)n(-c3ccccc3)n(-c3ccccc3)c2=O)cc1` [Example 29] was tested. Which pIC50 (CCKB receptor; [1]) did it give?
Answer: The pIC50 was < 4.70.

Question: With `Cc1ccccc1NC(=O)Nc1c(C)n(-c2ccccc2)n(-c2ccccc2)c1=O` [Example 30] as the compound, how does the pIC50 (CCKB receptor; [1]) read?
Answer: Its pIC50 is < 4.70.

Question: What does the source list for `Cc1cccc(NC(=O)Nc2c(C)n(-c3ccccc3)n(-c3ccccc3)c2=O)c1` [Example 22, N-(5-Methyl-3-oxo-1,2-diphenyl-2,3-dihydro-1H-pyrazol4-yl)N′-3-methylphenylurea]?
Answer: pIC50 (CCKA receptor; [5]): 7.70; pIC50 (CCKB receptor; [1]): 7.60

Question: Which results are given for `Cc1c(NC(=O)c2c[nH]c3ccccc23)c(=O)n(-c2ccccc2)n1-c1ccccc1` [Example 37, N-(5-Methyl-3-oxo-1,2-diphenyl-2,3-dihydro-1H-pyrazol-4yl)-1H-indole-3-carboxamide]?
Answer: pIC50 (CCKA receptor; [6]): 5.70; Ratio A/B (CCKA receptor; Table 4): 1.8; pIC50 (CCKB receptor; [7]): 5.46

Question: How did the pIC50 (CCKB receptor; [2]) turn out when `COc1ccc(NC(=O)Nc2c(C)n(C)n(-c3ccccc3)c2=O)cc1` [Example 6] was run?
Answer: Its pIC50 is < 5.00.

Question: How did the pIC50 (CCKB receptor; [2]) turn out when `Cc1c(NC(=O)Nc2cccc(Cl)c2)c(=O)n(-c2ccccc2)n1C` [Example 10] was run?
Answer: Its pIC50 is < 5.00.

Question: `Cc1c(NC(=O)Nc2ccccc2)c(=O)n(-c2ccccc2)n1-c1ccccc1` [Example 26, N-(5-Methyl-3oxo-1,2diphenyl-2,3-dihydro-1H-pyrazol4-yl)—N′-phenylurea] was tested. Which pIC50 (CCKB receptor; [1]) did it give?
Answer: Its pIC50 is 5.52.

Question: `Cc1c(NC(=O)c2cc3ccccc3[nH]2)c(=O)n(-c2ccccc2)n1-c1ccccc1` [Example 36, N-(5-Methyl-3-oxo-1,2-diphenyl-2,3dihydro-1H-pyrazol-4yl)-1H-indole-2-carboxamide] was tested. Which pIC50 (CCKA receptor; [6]) did it give?
Answer: Its pIC50 is 7.70.

Question: What about the “Ratio A/B” value (CCKA receptor; Table 4) of the same compound?
Answer: The value was 1.5.

Question: What about the pIC50 (CCKB receptor; [7]) of the same compound?
Answer: Its pIC50 is 7.52.

Question: `Cc1c(NC(=O)Nc2ccccc2[N+](=O)[O-])c(=O)n(-c2ccccc2)n1C` [Example 12] was tested. Which pIC50 (CCKB receptor; [2]) did it give?
Answer: The pIC50 was < 4.70.

Question: With `Cc1c(NC(=O)Nc2cccc3ccccc23)c(=O)n(-c2ccccc2)n1-c1ccccc1` [Example 34] as the compound, how does the pIC50 (CCKB receptor; [1]) read?
Answer: The pIC50 was < 4.70.

Question: `Cc1c(NC(=O)NC2CCCCC2)c(=O)n(-c2ccccc2)n1C` [Example 14] was tested. Which pIC50 (CCKB receptor; [2]) did it give?
Answer: Its pIC50 is < 5.00.

Question: How did the pIC50 (CCKB receptor; [1]) turn out when `Cc1c(NC(=O)Nc2ccc(Br)cc2)c(=O)n(-c2ccccc2)n1-c1ccccc1` [Example 24, N-(4-Bromophenyl)-N′-(5-methyl-3-oxo-1,2-diphenyk-2,3-dihydro-1H-pyrazol-4-yl)urea] was run?
Answer: Its pIC50 is < 4.70.

Question: `Cc1c(NC(=O)c2c[nH]c3ccccc23)c(=O)n(-c2ccccc2)n1C` [Example 18] was tested. Which pIC50 (CCKA receptor) did it give?
Answer: The pIC50 was 5.70.

Question: And the pIC50 (CCKB receptor)?
Answer: Its pIC50 is 4.82.

Question: Which results are given for `COc1cccc(NC(=O)Nc2c(C)n(-c3ccccc3)n(-c3ccccc3)c2=O)c1` [Example 21, N-(5-methyl-3-oxo-1,2-diphenyl-2,3-dihydro-1H-pyrazol-4-yl)N′-3-methoxyphenylurea]?
Answer: pIC50 (CCKA receptor; [5]): 8.00; pIC50 (CCKB receptor; [1]): 7.46

Question: With `Cc1c(NC(=O)NC2CCCCC2)c(=O)n(-c2ccccc2)n1-c1ccccc1` [Example 27] as the compound, how does the pIC50 (CCKB receptor; [1]) read?
Answer: Its pIC50 is 6.07.

Question: `Cc1c(NC(=O)c2cc3ccccc3[nH]2)c(=O)n(-c2ccccc2)n1C` [Example 16] was tested. Which pIC50 (CCKA receptor; [3]) did it give?
Answer: Its pIC50 is 7.10.

Question: What about the “Ratio A/B” value (CCKA receptor; Table 2) of the same compound?
Answer: The value was 11.3.

Question: What about the pIC50 (CCKB receptor; [4]) of the same compound?
Answer: The pIC50 was 6.05.

Question: With `Cc1c(NC(=O)Cc2c[nH]c3ccccc23)c(=O)n(-c2ccccc2)n1-c1ccccc1` [Example 38] as the compound, how does the pIC50 (CCKA receptor; [6]) read?
Answer: Its pIC50 is 7.70.

Question: And the “Ratio A/B” value (CCKA receptor; Table 4)?
Answer: Its value is 125.

Question: And the pIC50 (CCKB receptor; [7])?
Answer: Its pIC50 is 5.60.

Question: With `Cc1c(NC(=O)CCc2c[nH]c3ccccc23)c(=O)n(-c2ccccc2)n1C` [Example 17, N-(1,5-Dimethyl-3-oxo-2-phenyl-2 3dihydro-1H-pyrazol-4yl)-3-(1H-indol-3-yl)propanamide] as the compound, how does the pIC50 (CCKA receptor; [3]) read?
Answer: The pIC50 was 6.00.

Question: And the “Ratio A/B” value (CCKA receptor; Table 2)?
Answer: The value was 4.

Question: And the pIC50 (CCKB receptor; [4])?
Answer: Its pIC50 is 5.40.

Question: `Cc1c(NC(=O)CCc2c[nH]c3ccccc23)c(=O)n(-c2ccccc2)n1-c1ccccc1` [Example 39, N-(5-Methyl-3-oxo-1,2-diphenyl-2,3-dihydro-1H-pyrazol-4-yl)-3-(1H-indol-3-yl)propanamide] was tested. Which pIC50 (CCKA receptor; [6]) did it give?
Answer: The pIC50 was 7.60.

Question: And the “Ratio A/B” value (CCKA receptor; Table 4)?
Answer: The value was 80.

Question: And the pIC50 (CCKB receptor; [7])?
Answer: The pIC50 was 5.70.

Question: Which “Ratio A/B” value (CCKA receptor; Table 4) does the source give for `Cc1c(NC(=O)CCCc2c[nH]c3ccccc23)c(=O)n(-c2ccccc2)n1-c1ccccc1` [Example 40, N-(5Methyl-3-oxo-1,2-diphenyl-2,3-dihydro-1H-pyrazol-4yl)-4-(1H-indol-3-yl)butanamide] here?
Answer: The value was 1.

Question: With `Cc1c(NC(=O)NC(C)(C)C)c(=O)n(-c2ccccc2)n1-c1ccccc1` [Example 35] as the compound, how does the pIC50 (CCKB receptor; [1]) read?
Answer: Its pIC50 is 6.00.
